Source: patent publication US9394253B2, “Kinase protein binding inhibitors” (Roswell Park Cancer Institute, priority 2011, dated 2016)

Key:
[1] = target: T1, FAK FAT domain (Homo sapiens, UniProt Q05397); assay: Label-free OctetRED binding assay
T1 sequence (Q05397 914-1045 limits assumed): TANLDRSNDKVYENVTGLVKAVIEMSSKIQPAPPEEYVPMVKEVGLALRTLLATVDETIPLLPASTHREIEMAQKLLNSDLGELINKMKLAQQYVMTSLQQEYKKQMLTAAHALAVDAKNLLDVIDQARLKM
Text: We used a label-free OctetRED method for determining kinetic constants for the binding of small molecule inhibitors to the FAK FAT domain.
A label-free OctetRED method was used for determining kinetic constants for the binding of C9 or C10 to the FAK-FAT domain. Label-free analysis of the association and dissociation of a small molecule with the target protein of interest results in the determination of kinetic constants including the association rate constant (ka), dissociation rate constant (kd), and equilibrium dissociation constant (KD).

[2] = system: pancreatic cancer cell line; assay: Viability of pancreatic cancer cells exposed to compounds (FIG. 3); type: cell-based, Human; conditions: 50 μM
Experimental: (§1) Equal numbers of cells were plated and allowed to attach for 24 hours. Cells were treated with the drug or control as described. Cellular viability was measured using trypan blue exclusion and cell counting with a hemacytometer. Viability was further measured with an MTS (3-(4,5-dimethylthiazol-2-yl)-5-(3-carboxymethoxyphenyl)-2-(4-sulfophenyl)-2H-tetrazolium) assay. MTS in the presence of phenazine methosulfate (PMS), produces a formazan product that has an absorbance maximum at 490-500 nm in phosphate-buffered saline. In brief, cells were plated at 5×10^3 cells per well on 96-well culture plates and allowed to attach. Following treatment with siRNA or peptides, […] was added to each well and the absorbance at 490 nm was measured using a kinetic microplate reader (Vmax, Molecular Devices, Inc., Sunnyvale, Calif.). The MTS assay was performed at 72 hours after exposure of the cells to determine the IC50 for each of the selected compounds.
FIGS. 1-3 show the results of exposure of the indicated cancer cell lines to 50 μM of the indicated compounds of the invention.

[3] = system: MiaPaCa-2-luc cells; assay: MTS cell viability assay, MiaPaCa-2-luc cells; type: cell-based; conditions: Homo sapiens, MTS assay at 72 hours
Experimental: as §1
(§2) In FIGS. 15 and 16, MiaPaCa-2-luc cells (with an IC50 for C9 of 8 μM and for C10 of 20 μM) and MCF-7-VEGFR3 cells (with an IC50 for C9 of 4 μM and for C10 of 8 μM) were treated with 1, 10 or 25 μM C9 or C10 for 24 hours (the MCF-7-VEGFR3 cells serving as a positive control in this study). Western blots were performed as described above to determine the levels of total Akt, phosphorylated Akt (pAkt), total Erk, and phosphorylated Erk (pErk). […]

[4] = system: MCF-7-VEGFR3 cells; assay: MTS cell viability assay, MCF-7-VEGFR3 cells; type: cell-based; conditions: MTS assay at 72 hours
Experimental: as §1, §2

[5] = target: T2, FAK and VEGFR3 (Flt-4) proteins (Homo sapiens, UniProt Q05397); assay: Immunoprecipitation with FAK antibody after treatment of MiaPaCa-2 cells (FAK-VEGFR3 binding); type: cell-based; conditions: 24 h of treatment
T2 construct: Immunoprecipitation with FAK antibody after 24 h of treatment of MiaPaCa-2 cells; endogenous in cells; host or cells: MiaPaCa-2
T2 sequence (Q05397 2-1052 limits assumed): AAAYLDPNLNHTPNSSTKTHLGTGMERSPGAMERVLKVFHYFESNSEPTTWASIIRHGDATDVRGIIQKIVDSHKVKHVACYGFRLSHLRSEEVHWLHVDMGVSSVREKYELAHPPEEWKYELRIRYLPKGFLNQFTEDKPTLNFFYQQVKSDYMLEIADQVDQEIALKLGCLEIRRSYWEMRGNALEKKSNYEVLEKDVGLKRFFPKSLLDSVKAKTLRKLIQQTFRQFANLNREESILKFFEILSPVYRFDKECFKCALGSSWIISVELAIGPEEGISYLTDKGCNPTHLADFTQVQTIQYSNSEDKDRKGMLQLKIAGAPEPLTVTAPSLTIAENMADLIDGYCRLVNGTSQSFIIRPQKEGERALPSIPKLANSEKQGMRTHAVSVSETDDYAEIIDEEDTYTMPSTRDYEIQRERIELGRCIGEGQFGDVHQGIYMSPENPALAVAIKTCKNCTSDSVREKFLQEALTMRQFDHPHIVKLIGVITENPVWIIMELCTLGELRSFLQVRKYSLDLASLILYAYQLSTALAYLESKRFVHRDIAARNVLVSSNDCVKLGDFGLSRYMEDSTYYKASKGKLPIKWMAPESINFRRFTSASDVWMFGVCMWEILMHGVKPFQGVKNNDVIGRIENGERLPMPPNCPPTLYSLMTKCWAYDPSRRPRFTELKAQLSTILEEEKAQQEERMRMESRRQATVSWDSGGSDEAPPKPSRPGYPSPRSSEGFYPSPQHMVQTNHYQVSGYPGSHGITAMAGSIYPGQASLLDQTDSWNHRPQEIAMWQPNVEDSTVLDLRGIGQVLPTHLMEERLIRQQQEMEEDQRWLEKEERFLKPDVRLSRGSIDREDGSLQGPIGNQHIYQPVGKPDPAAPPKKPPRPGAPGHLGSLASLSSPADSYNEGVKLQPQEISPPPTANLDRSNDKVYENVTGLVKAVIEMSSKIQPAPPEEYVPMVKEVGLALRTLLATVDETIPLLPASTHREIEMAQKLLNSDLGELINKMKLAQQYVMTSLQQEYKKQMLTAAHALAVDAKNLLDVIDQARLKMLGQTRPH
Experimental: For immunoprecipitation, cells are lysed with NP40 lysis buffer, and 1000 μg of total protein is precleared with protein A/G-agarose beads (CalBiochem) at 4° C. for 1 hour and then incubated with 5 μg of antibody overnight followed by a 2 hour incubation with protein A/G-agarose beads at 4° C. Precipitates are washed thrice with cold PBS and the beads are resuspended in SDS-PAGE sample loading buffer, boiled for 5 minutes, and resolved by SDS-PAGE. Proteins are transferred to polyvinylidene difluoride membrane, probed with the appropriate antibody, and detected with chemiluminescence using Amersham ECL Western blotting detection reagents (GE Healthcare Life Sciences, Piscataway, N.J.).
The study utilized the “Octet Red” technology (ForteBio, Menlo Park, Calif.), which provides real-time monitoring for protein-small molecule interactions and binding events using BioLayer Interferometry (BLI) technology. Any change in the number of molecules bound to the biosensor tip changes the optical layer thickness. […] Since C1 is not active against this pancreatic cancer cell line, it was included as a negative control, and chloropyramine (“C4”), which has been shown previously to be active against this cell line, was used as a positive control.

[6] = system: pancreatic cancer cell line; assay: Clonogenicity (colony formation); type: cell-based, Human; conditions: compared with chloropyramine (C4)
Experimental: The 500-1000 cells were plated on 6 well plates and incubated at 37° C. for 1-2 weeks. Then cells were fixed in 25% methanol and stained with Crystal Violet and colonies were visualized and counted in two independent experiments.
In FIG. 11, results of such a clonogenicity study are shown for compounds C9 and C10 using a pancreatic cancer cell line. In this particular study, since compound C1 is not active against this particular cancer cell line (see FIG. 3), it was used as a negative control. Chloropyramine (“C4”), which has been previously shown to have some activity against this cancer cell line, was used as a positive control.

[7] = system: MiaPaCa-2-luc cells; assay: Tumor growth in xenograft nude mice; type: in vivo
Experimental: Female nude or SCID mice were purchased six weeks old and were maintained in the animal facility, and all experiments were performed in compliance with NIH animal use guidelines using IACUC protocol approved by the Roswell Park Animal Care Committee. The 1×10^6 MiaPaCa2 cells were injected into mice subcutaneously. Next day after cell injection or week later, when tumor size reached 100 mm^3, drug was introduced by IP or gavage orally daily, 5 days per week for several weeks. Tumor diameters were measured with calipers and tumor volume in mm^3 was calculated using this formula: tumor volume=(width)^2×Length/2. At the end of the experiment, tumor weight and volume were determined. Tumor samples were collected for Western blotting and for immunohistochemical analysis.
Mice received a daily dose of the indicated amount of compounds 9A, 9B or C10 either by intraperitoneal injection (IP) or by oral gavage (PO). Treatment was initiated after tumors reached a volume of approximately 100 mm^3. […] The percent reduction in tumor volume compared to the control group (“PBS-IP”) is indicated in FIG. 6B for each treatment group.

[8] = system: phosphorylated Akt and phosphorylated Erk; assay: Western blot of downstream effectors of FAK (Akt, Erk); type: cell-based; conditions: MiaPaCa-2-luc and MCF-7-VEGFR3 cells, 1, 10 or 25 μM for 24 hours
Experimental: Western blots were performed essentially as previously described. See: Beierle E, Ma X, Trujillo A, Kurenova E, Cance W, Golubovskaya V: Inhibition of focal adhesion kinase and src increases detachment and apoptosis in human neuroblastoma cell lines. Mol Carcinog 2010, 49:224-234; Kurenova E, Xu L, Yang X, Baldwin A J, Craven R, Hanks S, Liu Z, Cance W: Focal adhesion kinase suppresses apoptosis by binding to the death domain of receptor-interacting protein. Mol Cell Biol 2004, 24:4361-4371. Briefly, cells were treated with the agent under study, then lysed on ice for 30 min in a buffer containing 50 mM Tris-HCL, (pH 7.5), 150 mM NaCl, 1% Triton-X, 0.5% NaDOC, 0.1% SDS, 5 mM EDTA, 50 mM NaF, 1 mM NaVO3, 10% glycerol, and protease inhibitors: 10 μg/mL leupeptin, 10 μg/mL PMSF and 1 μg/ML aprotinin. The lysates were cleared by centrifugation at 10 000 rpm for 30 min at 4° C. Protein concentrations were determined using a Bio-Rad kit (BioRad, Hercules, Calif.) and proteins were separated by electrophoresis on SDS-PAGE gels. Antibodies were used according to manufacturer's recommended conditions. Molecular weight markers were used to confirm the expected size of the target proteins. Immunoblots were developed with chemiluminescence Amersham ECL Western blotting detection reagents (GE Healthcare Biosciences). […]

Row | SMILES | binding to the FAT domain of FAK [1] | activity against pancreatic cancer cell line [2] | IC50 [3] | IC50 [4] | concentration at which binding of FAK and VEGFR3 (Flt-4) proteins was disrupted [5] | inhibition of colony formation [6] | tumor volume compared to vehicle (PBS)-treated tumors ([7]; IP 20 mg/kg daily, P<0.05) | effectiveness by route of administration ([7]; oral vs intraperitoneal) | phosphorylated Akt level [8] | phosphorylated Erk level [8]
1 | CN(C)CCNc1ccccn1 [Compound C1] | does not appear to bind | not active | – | – | – | – | – | – | – | –
2 | CN(C)CCN(Cc1ccc(Cl)cc1)c1ccc2ccccc2n1 [Compound C10] | – | – | 20 µM | 8 µM | 10 µM | active at much lower doses than C4 | Statistically significant differences | very effective when administered orally | strong down-regulation | strong down-regulation
